Key:
uric acid in blood [1] = experiment: Multiple dose study (TS, 14 days): uric acid in blood of healthy and elderly subjects; type: in vivo, human
Protocol: (§1) Uric acid measurements were performed using a commercial colorimetric assay kit (Beckman Coulter).
(§2) Multiple oral doses of 4-[2-(5-amino-1H-pyrazol-4-yl)-4-chlorophenoxy]-5-chloro-2-fluoro-N-(1,3-thiazol-4-yl)benzenesulfonamide TS dispersion for oral administration, and placebo, were investigated for 14 days, as follows: • healthy subjects, 300 mg twice daily (BID,) • healthy subjects, 450 mg BID, and • elderly subjects, 300 mg BID.
(§3) Subjects were fasted overnight prior to the morning doses and for at least 2 hours prior to the evening doses. Food was withheld for at least 2 hours postdose.
A total of 49 subjects were enrolled in the study of which 39 received 4-[2-(5-amino-1H-pyrazol-4-yl)-4-chlorophenoxy]-5-chloro-2-fluoro-N-(1,3-thiazol-4-yl)benzenesulfonamide TS and 10 received placebo.

[2] = Stability of the tosylate salt versus free base and other salts; type: physicochemical
[3] = Aqueous solubility of the tosylate salt; type: physicochemical
uric acid in urine [4] = experiment: Multiple dose study (TS, 14 days): fraction of uric acid excreted in urine; type: in vivo, human; settings: day 10
uric acid in urine [5] = experiment: as above; type: in vivo, human; settings: urine
Protocol: as §2, §3
Uric acid was also measured in urine collected over 24 hours prior to dosing on Day 1, and then on Days 6, 14 and 16. The percent excreted fraction of uric acid in urine was calculated and analyzed with a linear mixed effects model.

uric acid in blood [6] = experiment: Single dose study: uric acid in blood of healthy subjects (colorimetric assay kit); type: in vivo, human; settings: fasted
Protocol: as §1
Single doses of 4-[2-(5-amino-1H-pyrazol-4-yl)-4-chlorophenoxy]-5-chloro-2-fluoro-N-(1,3-thiazol-4-yl)benzenesulfonamide SDD (‘SDD’) dispersion for oral administration, ranging from 10 mg to 2400 mg, were investigated. In addition, single doses of 4-[2-(5-amino-1H-pyrazol-4-yl)-4-chlorophenoxy]-5-chloro-2-fluoro-N-(1,3-thiazol-4-yl)benzenesulfonamide tosylate (‘TS’) dispersion for oral administration, ranging from 200 mg to 1000 mg, were also investigated.
The following doses were investigated and all doses were given in the fasted state with the exception of 200 mg and 1000 mg SDD dispersions, which were given in both the fasted state and after a high-fat meal (‘fed’).
A total of 61 subjects (all male) participated and all received at least one dose of SDD or TS dispersion for oral administration.
Mean data of uric acid levels per dose group are given as follows: • SDD fasted: Table 5 • SDD fed and fasted Table 6 • TS Table 7

[7] = TS oral 300 mg BID, elderly subjects, day 6
[8] = TS oral 300 mg BID, elderly subjects, day 14
[9] = TS oral 300 mg BID, healthy subjects, day 6
[10] = TS oral 300 mg BID, healthy subjects, day 14
[11] = TS oral 450 mg BID, healthy subjects, day 6
[12] = TS oral 450 mg BID, healthy subjects, day 14

## Cc1ccc(S(=O)(=O)O)cc1.Nc1[nH]ncc1-c1cc(Cl)ccc1Oc1cc(F)c(S(=O)(=O)Nc2cscn2)cc1Cl [TS, 4-[2-(5-amino-1H-pyrazol-4-yl)-4-chlorophenoxy]-5-chloro-2-fluoro-N-(1,3-thiazol-4-yl)benzenesulfonamide tosylate]
Uric acid in blood [1]; TS oral 300 mg BID for 14 days, elderly subjects, day 0
  Mean uric acid: 5.43 mg/dL
Uric acid in blood [1]; TS oral 300 mg BID for 14 days, healthy subjects, day 0
  Mean uric acid: 5.56 mg/dL
Uric acid in blood [1]; TS oral 300 mg BID, elderly subjects, day 3
  Mean uric acid: 3.41 mg/dL
Uric acid in blood [1]; [7]
  Mean uric acid: 2.99 mg/dL
Uric acid in blood [1]; TS oral 300 mg BID, elderly subjects, day 8
  Mean uric acid: 3.57 mg/dL
Uric acid in blood [1]; TS oral 300 mg BID, elderly subjects, day 10
  Mean uric acid: 3.37 mg/dL
Uric acid in blood [1]; [8]
  Mean uric acid: 3.59 mg/dL
Uric acid in blood [1]; TS oral 300 mg BID, healthy subjects, day 3
  Mean uric acid: 3.50 mg/dL
Uric acid in blood [1]; [9]
  Mean uric acid: 3.23 mg/dL
Uric acid in blood [1]; TS oral 300 mg BID, healthy subjects, day 8
  Mean uric acid: 3.54 mg/dL
Uric acid in blood [1]; TS oral 300 mg BID, healthy subjects, day 10
  Mean uric acid: 3.79 mg/dL
Uric acid in blood [1]; [10]
  Mean uric acid: 3.78 mg/dL
Uric acid in blood [1]; TS oral 450 mg BID for 14 days, healthy subjects, day 0
  Mean uric acid: 5.89 mg/dL
Uric acid in blood [1]; TS oral 450 mg BID, healthy subjects, day 3
  Mean uric acid: 3.05 mg/dL
Uric acid in blood [1]; [11]
  Mean uric acid: 3.00 mg/dL
Uric acid in blood [1]; TS oral 450 mg BID, healthy subjects, day 8
  Mean uric acid: 3.21 mg/dL
Uric acid in blood [1]; TS oral 450 mg BID, healthy subjects, day 10
  Mean uric acid: 3.45 mg/dL
Uric acid in blood [1]; [12]
  Mean uric acid: 3.56 mg/dL
[2]; crystalline form, versus free base
  solid form stability: better solid form stability than the free base
[2]; versus other salts
  stability with regard to disassociation: greater stability with regard to disassociation than other salts
[2]; with regard to formulation and storage, versus free base
  chemical stability: improved chemical stability over the free base
[3]
  aqueous solubility: good aqueous solubility
Uric acid in urine [4]; TS oral 300 mg BID, elderly subjects
  Fraction excreted of uric acid: 13.02%
Uric acid in urine [4]; TS oral 300 mg BID, healthy subjects
  Fraction excreted of uric acid: 14.99%
Uric acid in urine [4]; TS oral 450 mg BID, healthy subjects
  Fraction excreted of uric acid: 17.09%
Uric acid in urine [5]; TS oral 300 mg BID, elderly subjects, day 1
  Fraction excreted of uric acid: 6.17%
Uric acid in urine [5]; [7]
  Fraction excreted of uric acid: 13.79%
Uric acid in urine [5]; [8]
  Fraction excreted of uric acid: 7.66%
Uric acid in urine [5]; TS oral 300 mg BID, healthy subjects, day 1
  Fraction excreted of uric acid: 8.44%
Uric acid in urine [5]; [9]
  Fraction excreted of uric acid: 17.41%
Uric acid in urine [5]; [10]
  Fraction excreted of uric acid: 6.43%
Uric acid in urine [5]; TS oral 450 mg BID, healthy subjects, day 1
  Fraction excreted of uric acid: 8.61%
Uric acid in urine [5]; [11]
  Fraction excreted of uric acid: 19.81%
Uric acid in urine [5]; [12]
  Fraction excreted of uric acid: 7.69%
Uric acid in blood [6]; TS oral single dose 200 mg, 0 hours
  Mean uric acid: 5.92 mg/dL
Uric acid in blood [6]; TS oral single dose 200 mg, 48 hours
  Mean uric acid: 5.43 mg/dL
Uric acid in blood [6]; TS oral single dose 600 mg, 0 hours
  Mean uric acid: 6.21 mg/dL
Uric acid in blood [6]; TS oral single dose 600 mg, 48 hours
  Mean uric acid: 5.04 mg/dL
Uric acid in blood [6]; TS oral single dose 1000 mg, 0 hours
  Mean uric acid: 6.40 mg/dL
Uric acid in blood [6]; TS oral single dose 1000 mg, 48 hours
  Mean uric acid: 4.86 mg/dL

— patent publication US20140248252A1, “New Salt And Medical Use” (Pfizer Limited, priority 2011, published 2014)
